The results in this text go back to US11180474B2 (BRISTOL-MYERS SQUIBB COMPANY, priority 2016, dated 2021).

Structures can show the parent of a compound that is named as a salt.

One experiment deals with T1, human TLR8 (Homo sapiens, UniProt Q9NR97).
T1 construct: host or cells: HEK-Blue cells
T1 sequence (Q9NR97 27-1041): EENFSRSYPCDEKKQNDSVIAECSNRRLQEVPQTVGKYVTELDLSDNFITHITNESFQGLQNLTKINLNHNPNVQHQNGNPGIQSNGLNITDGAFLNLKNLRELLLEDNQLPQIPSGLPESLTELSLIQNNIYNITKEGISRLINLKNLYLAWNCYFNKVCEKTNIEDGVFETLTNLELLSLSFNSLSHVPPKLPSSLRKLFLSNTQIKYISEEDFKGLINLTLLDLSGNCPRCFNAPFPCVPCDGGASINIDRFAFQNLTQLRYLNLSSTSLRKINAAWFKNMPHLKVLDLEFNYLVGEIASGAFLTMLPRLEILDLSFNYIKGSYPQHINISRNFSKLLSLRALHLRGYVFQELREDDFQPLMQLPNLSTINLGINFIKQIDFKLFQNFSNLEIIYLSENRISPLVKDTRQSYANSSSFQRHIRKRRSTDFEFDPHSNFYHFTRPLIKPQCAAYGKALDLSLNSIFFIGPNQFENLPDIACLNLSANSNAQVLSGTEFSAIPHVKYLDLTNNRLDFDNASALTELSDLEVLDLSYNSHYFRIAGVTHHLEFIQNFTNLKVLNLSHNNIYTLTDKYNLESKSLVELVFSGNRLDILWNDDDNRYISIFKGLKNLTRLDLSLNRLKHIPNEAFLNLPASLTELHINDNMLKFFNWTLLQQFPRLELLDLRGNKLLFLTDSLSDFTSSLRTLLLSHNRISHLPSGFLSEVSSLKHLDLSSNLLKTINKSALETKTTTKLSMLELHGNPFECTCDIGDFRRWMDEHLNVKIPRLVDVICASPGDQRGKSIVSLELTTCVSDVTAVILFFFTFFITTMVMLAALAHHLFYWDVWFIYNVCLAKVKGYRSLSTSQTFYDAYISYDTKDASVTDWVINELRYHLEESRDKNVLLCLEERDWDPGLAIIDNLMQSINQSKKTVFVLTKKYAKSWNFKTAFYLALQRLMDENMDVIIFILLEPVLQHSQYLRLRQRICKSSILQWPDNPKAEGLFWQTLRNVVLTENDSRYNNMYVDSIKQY
In words: TLR8 inhibition reporter assay (HEK-Blue cells, SEAP reporter, R848 stimulation). The class given is cell-based. As to conditions: HEK-Blue cells overexpressing human TLR8, R848 15.9 μM. Put shortly:
(§1)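 22 h, 37° C, 5% CO2 incubation; compounds 0.05 nM-50 μM final; TLR7 cells 15000/well, TLR8 20,000/well. Readout: SEAP via HEK-Blue Detection medium. % inhibition = signal reduction versus agonist + DMSO wells, referenced to known inhibitor.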

The next experiment has as its target T2, human TLR7 (Homo sapiens, UniProt Q9NYK1).
T2 construct: host or cells: HEK-Blue cells
T2 sequence (Q9NYK1 27-1049): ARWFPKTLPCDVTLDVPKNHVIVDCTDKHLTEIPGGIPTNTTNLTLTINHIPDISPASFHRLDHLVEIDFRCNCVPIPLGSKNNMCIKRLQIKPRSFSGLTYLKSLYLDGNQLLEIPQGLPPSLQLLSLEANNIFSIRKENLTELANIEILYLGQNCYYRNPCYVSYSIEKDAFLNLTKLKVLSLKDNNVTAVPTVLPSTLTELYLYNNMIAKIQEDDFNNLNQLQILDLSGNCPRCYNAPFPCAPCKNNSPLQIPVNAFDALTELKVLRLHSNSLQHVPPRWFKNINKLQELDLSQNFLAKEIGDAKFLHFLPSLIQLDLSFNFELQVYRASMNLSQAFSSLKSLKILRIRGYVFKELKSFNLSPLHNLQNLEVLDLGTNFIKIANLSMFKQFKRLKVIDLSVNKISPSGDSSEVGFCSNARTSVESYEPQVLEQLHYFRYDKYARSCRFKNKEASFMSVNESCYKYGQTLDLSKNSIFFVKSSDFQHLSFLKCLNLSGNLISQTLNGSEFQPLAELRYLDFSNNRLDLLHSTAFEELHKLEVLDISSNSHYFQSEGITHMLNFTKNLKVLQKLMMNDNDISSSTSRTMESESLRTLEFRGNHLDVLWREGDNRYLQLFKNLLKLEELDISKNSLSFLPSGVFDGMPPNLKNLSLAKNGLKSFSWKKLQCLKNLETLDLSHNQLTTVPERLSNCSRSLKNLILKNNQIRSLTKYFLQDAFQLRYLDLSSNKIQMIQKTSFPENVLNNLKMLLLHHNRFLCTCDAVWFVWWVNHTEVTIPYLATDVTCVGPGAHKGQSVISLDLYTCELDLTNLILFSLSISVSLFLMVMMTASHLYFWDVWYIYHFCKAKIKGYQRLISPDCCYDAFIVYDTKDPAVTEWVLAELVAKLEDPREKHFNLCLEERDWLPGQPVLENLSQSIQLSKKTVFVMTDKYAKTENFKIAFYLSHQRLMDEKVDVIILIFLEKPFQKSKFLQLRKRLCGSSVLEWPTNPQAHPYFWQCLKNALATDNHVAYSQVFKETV
In words: TLR7 inhibition reporter assay (HEK-Blue cells, SEAP reporter, gardiquimod stimulation). Type of experiment: cell-based. As to conditions: HEK-Blue cells overexpressing human TLR7, gardiquimod 7.5 μM. Put shortly: as §1

Turning to `COc1ccc(-c2[nH]c3ccc(C4CCNCC4)cc3c2C(C)C)cc1OC` [Example 194, 2-(3,4-dimethoxyphenyl)-3-isopropyl-5-(piperidin-4-yl)-1H-indole hydrochloride], the IC50 on human TLR8 is 54 nM; at human TLR7, 73 nM.

For the compound `CCN(CC)C(=O)CN(C)CC(=O)N1CCC(c2ccc3[nH]c(-c4ccc(OC)c(OC)c4)c(C(C)C)c3c2)CC1` [Example 203, 2-((2-(4-(2-(3,4-dimethoxyphenyl)-3-isopropyl-1H-indol-5-yl)piperidin-1-yl)-2-oxoethyl)(methyl)amino)-N,N-diethylacetamide, TFA], the IC50 at human TLR8 turned out to be 286 nM; at human TLR7 it was 128 nM.

In the case of `CCc1c(-c2ccc(OC)c(OC)c2)[nH]c2ccc(C3CCN(C(=O)CN4CCCC(C(=O)N(CC)CC)C4)CC3)cc12` (stereo not drawn) [Example 168, 1-(2-(4-(2-(3,4-dimethoxyphenyl)-3-ethyl-1H-indol-5-yl)piperidin-1-yl)-2-oxoethyl)-N,N-diethylpiperidine-3-carboxamide], the IC50 stood at 41 nM against human TLR8 and 142 nM against human TLR7.

In the case of `COc1ccc(-c2[nH]c3ccc(C4CCN(C(=O)CNC56CC7CC(CC(C7)C5)C6)CC4)cc3c2C(C)C)cc1OC` [Example 217, 2-(((3s,5s,7s)-adamantan-1-yl)amino)-1-(4-(2-(3,4-dimethoxyphenyl)-3-isopropyl-1H-indol-5-yl)piperidin-1-yl)ethan-1-one], the results for the IC50 on human TLR8 and at human TLR7 were 379 nM and 409 nM, respectively.

Turning to `COc1ccc(-c2[nH]c3ccc(C4CCN(C(=O)CNCCO)CC4)cc3c2C(C)C)cc1OC` [Example 212, 1-(4-(2-(3,4-dimethoxyphenyl)-3-isopropyl-1H-indol-5-yl)piperidin-1-yl)-2-((2-hydroxyethyl)amino)ethan-1-one], the IC50 on human TLR8 was determined as 20 nM; at human TLR7, 13 nM.

With `CCc1c(-c2ccc(OC)c(OC)c2)[nH]c2ccc(C3CCN(C4CCN(Cc5cc(C)n(C)n5)CC4)CC3)cc12` [Example 144, 2-(3,4-dimethoxyphenyl)-5-(1′-((1,5-dimethyl-1H-pyrazol-3-yl)methyl)-[1,4′-bipiperidin]-4-yl)-3-ethyl-1H-indole], the IC50 against human TLR8 turned out to be 73 nM; on human TLR7, 473 nM.

The IC50 is the midpoint of a concentration-inhibition curve. Lower therefore signals inhibition by little substance.
